Reference: patent US20120088774A1, “ACTIVE PHARMACEUTICAL INGREDIENT ADSORBED ON SOLID SUPPORT” (LEK PHARMACEUTICALS D.D., priority 2009, published 2012)
Blank lines part the entries; values can stand above or below the molecule they belong to.

How the values were obtained:
[1] = Dissolution of crystalline lovastatin and lovastatin adsorbate in 0.02M hydrochloric acid; assay type: physicochemical
Procedure: 0.2 g of lovastatin was dissolved in a mixture of 10 ml trichloromethane and 40 ml diisopropyl ether. 2 g of a the SYLOID® AL1 was added to the solution. Subsequently the solvent was removed by evaporation.

[2] = Dissolution of crystalline simvastatin and simvastatin adsorbate in 0.02M hydrochloric acid; assay type: physicochemical
Procedure: 0.2 g of simvastatin was dissolved in 50 ml of dichloromethane. 2 g of a the SYLOID® AL1 was added to the solution. Subsequently the solvent was removed by evaporation. The sample was analysed using X-ray powder diffraction (XRPD). Using XRPD it was confirmed that the API in the product was amorphous. The use of dichloromethane as the solvent for simvastatin and SYLOID® AL1 as the carrier gives the adsorbate according to the invention.

[3] = Dissolution of crystalline tadalafil, tadalafil adsorbate and precipitates on carriers; assay type: physicochemical; details: 20 mM phosphate buffer pH 6.9
Procedure: The carriers comprising tadalafil have been prepared as described in example 1.
0.1 g of tadalafil was dissolved in 20 ml of dichloromethane. 5 ml of the resulting solution was added to 0.25 g of a solid support (Aerosil® 380, Al2O3, MgO, TiO2). Subsequently the solvent was removed by evaporation.

[4] = crystalline solid; term defined as less or equal to 0.1 mg/ml; cited from earlier work

Amount dissolved ([1]; 2 min): 0.298 µg/mL
Amount dissolved ([1]; 5 min): 0.403 µg/mL
Amount dissolved ([1]; 10 min): 0.418 µg/mL
Amount dissolved ([1]; 15 min): 0.501 µg/mL
Amount dissolved ([1]; 25 min): 0.625 µg/mL
Amount dissolved ([1]; 40 min): 0.523 µg/mL
Amount dissolved ([1]; 60 min): 0.62 µg/mL
Amount dissolved ([2]; 2 min): 0.848 µg/mL
Amount dissolved ([2]; 5 min): 1.667 µg/mL
Amount dissolved ([2]; 10 min): 1.853 µg/mL
Amount dissolved ([2]; 15 min): 1.859 µg/mL
Amount dissolved ([2]; 25 min): 2.031 µg/mL
Amount dissolved ([2]; 40 min): 2.145 µg/mL
Amount dissolved ([2]; 60 min): 2.175 µg/mL
Compound: CC[C@H](C)C(=O)O[C@H]1C[C@@H](C)C=C2C=C[C@H](C)[C@H](CC[C@@H]3C[C@@H](O)CC(=O)O3)[C@H]21 [Crystalline lovastatin, lovastatin]

Amount dissolved ([3]; 2 min): 2.9 µg/mL
Amount dissolved ([3]; 5 min): 14.6 µg/mL
Amount dissolved ([3]; 10 min): 24.2 µg/mL
Amount dissolved ([3]; 15 min): 27.0 µg/mL
Amount dissolved ([3]; 25 min): 32.9 µg/mL
Amount dissolved ([3]; 40 min): 34.4 µg/mL
Compound: CN1CC(=O)N2[C@H](c3ccc4c(c3)OCO4)c3[nH]c4ccccc4c3C[C@@H]2C1=O [Crystalline tadalafil, (6R,12aR)-6-(1,3-Benzodioxol-5-yl)-2,3,6,7,12,12a-hexahydro-2-methyl-pyrazino[1′,2′:1,6]pyrido[3,4-b]indole-1,4-dione]
solubility in water [4]: practically insoluble in water
